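Cells were grown in 96-well plates and exposed to each compound for 48 hours at five concentrations; endpoints were interpolated linearly between bracketing concentrations, or set to the highest concentration if not reached. GI50: concentration for 50% inhibition of growth. At the TGI there is no net growth.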
Legend:
Assay in all cases: NCI anticancer screen, dose series, 48 h
[1] = tested on: MALME-3M melanoma
[2] = tested on: TK-10 renal
[3] = tested on: RPMI-8226 leukemia
[4] = tested on: ACHN renal
[5] = tested on: COLO 205 colon
[6] = tested on: IGROV1 ovarian
[7] = tested on: HOP-92 NSCLC
[8] = tested on: SK-MEL-5 melanoma
[9] = tested on: HCT-116 colon
[10] = tested on: OVCAR-3 ovarian

CC1OC(OC2CCC3(C=O)C4CCC5(C)C(C6=CC(=O)OC6)CCC5(O)C4CCC3(O)C2)C(O)C(O)C1O (stereo unspecified)
TGI [1]: 8.23e-05 µM | TGI [2]: 0.000193 µM | TGI [3]: 0.000124 µM | TGI [4]: 6.36e-05 µM | TGI [5]: 0.0025 µM | TGI [6]: 0.0179 µM | TGI [7]: 0.000102 µM

Nc1ccc(S(=O)(=O)Nc2cnc3c(Cl)cccc3n2)cc1
TGI [1]: > 750 µM | GI50 [2]: > 84.7 µM | TGI [2]: 589 µM | GI50 [3]: > 95.1 µM | TGI [3]: > 705 µM | TGI [8]: > 627 µM | TGI [4]: > 750 µM | GI50 [9]: 14.7 µM | TGI [9]: 609 µM | GI50 [5]: > 74.3 µM | TGI [5]: 193 µM | GI50 [6]: 1.16 µM | TGI [6]: > 275 µM | TGI [10]: 411 µM | TGI [7]: 544 µM

O=C(c1ccc(Cl)cc1)C1OC12C(=O)Nc1ccccc12 (stereo unspecified)
TGI [1]: 18.8 µM | TGI [2]: 35.2 µM | TGI [3]: 10.2 µM | TGI [8]: 24.6 µM | TGI [4]: 28.5 µM | TGI [9]: 13.6 µM | TGI [5]: 8.53 µM | TGI [6]: 39.1 µM | TGI [10]: > 55.7 µM | TGI [7]: 30 µM

COc1ccc(CCc2cc(OC)c(OC)c(OC)c2)cc1
TGI [1]: 39.1 µM | TGI [2]: > 97.9 µM | TGI [3]: 17.1 µM | TGI [8]: 12 µM | TGI [4]: 76.9 µM | TGI [9]: 9.41 µM | TGI [5]: 0.189 µM | TGI [6]: > 100 µM | TGI [10]: 0.523 µM | TGI [7]: 62.7 µM

CC(=O)C1C(=O)N(C(C)C)C[C@@H]2CCC(=O)C[C@H]12 (stereo partly specified)
TGI [1]: > 100 µM | TGI [2]: > 100 µM | TGI [3]: > 100 µM | TGI [8]: > 100 µM | TGI [9]: > 100 µM | TGI [5]: > 100 µM | TGI [6]: > 100 µM | TGI [10]: > 100 µM | TGI [7]: > 100 µM
